In patent publication US9809808B2, “Antimicrobial agents” (KATHOLIEKE UNIVERSITEIT LEUVEN K.U. LEUVEN R&D, priority 2008, dated 2017):
Several values for one entry are separate records, joined by “and”; a condition that tells them apart may be missing. Equal entries are not always repeated. Where two headings read alike, the source gives them in different places.

Tests used:
[1] = system: Burkholderia pseudomallei; type: cell-based; conditions: 30 minutes
[2] = system: P. aeruginosa Br667; type: cell-based, Pseudomonas aeruginosa
[3] = system: Salmonella typhimurium LT2; type: cell-based; conditions: 30 minutes
[4] = system: Pseudomonas aeruginosa PAO1p cells; test: Effect of different EDTA and endolysin concentrations on antibacterial activity of OBPgpLYS and PKOBPgpLYS; type: cell-based
Description: To determine the influence of EDTA on the antibacterial activity of unmodified and modified endolysins the antibacterial activity of the unmodified OBPgpLYS endolysin (SEQ ID NO: 7) and the PKOBPgpLYS endolysin (SEQ ID NO: 61) was tested on Pseudomonas aeruginosa PAO1p cells ([…] et al. J Clin Microbiol., 41(3):1192-1202 (2003)) using different concentrations of EDTA and endolysins. Exponential growing bacterial cells (OD600 nm of 0.6) were 100-fold diluted to a final density of about 10^6/ml and incubated for 30 minutes at room temperature without shaking with unmodified endolysin OBPgpLYS (SEQ ID NO: 7) and modified endolysin PKOBPgpLYS (SEQ ID NO: 61). […] Thereby, the following different EDTA concentrations were used: 0 mM, 0.05 mM, 0.5 mM and 10 mM. […] After incubation cell suspensions were diluted three times (respectively 10^5-10^4-10^3 cells/ml) and 100 μl of each dilution was plated out on LB-medium. […] All samples were replicated in threefold. Averages+/-standard deviations are represented.

[5] = system: P. putida G1; type: cell-based, Pseudomonas putida
[6] = system: Gram-negative strains of Table 12; type: cell-based
[7] = system: Escherichia coli WK6; type: cell-based
[8] = 1.313 μM endolysin + 0.5 mM EDTA
[9] = 1.313 μM endolysin, no EDTA, 30 minutes
[10] = 0.013 μM endolysin, 0 mM EDTA-Na2, 30 minutes
[11] = 0.013 μM endolysin, 0.5 mM EDTA-Na2, 30 minutes
[12] = 0.131 μM endolysin, 0 mM EDTA-Na2, 30 minutes
[13] = 0.131 μM endolysin, 0.5 mM EDTA-Na2, 30 minutes
[14] = 1.315 μM endolysin, 0.05 mM EDTA-Na2, 30 minutes
[15] = 1.315 μM endolysin, 0.5 mM EDTA-Na2, 30 minutes
[16] = 1.315 μM endolysin, 10 mM EDTA-Na2, 30 minutes

Substance	relative inactivation in logarithmic units (log10N0/Ni) [1, 8]	relative inactivation in logarithmic units (log10N0/Ni) ([1]; 1.313 μM endolysin, no EDTA)	relative inactivation in logarithmic units (log10N0/Ni) [2]	relative inactivation in logarithmic units (log10N0/Ni) [2, 9]	relative inactivation in logarithmic units (log10N0/Ni) [3, 8]	relative inactivation in logarithmic units (log10N0/Ni) ([3]; 1.313 μM endolysin, no EDTA)	relative inactivation in logarithmic units (log10N0/Ni) [4, 10]	relative inactivation in logarithmic units (log10N0/Ni) [4, 11]	relative inactivation in logarithmic units (log10N0/Ni) [4, 12]	relative inactivation in logarithmic units (log10N0/Ni) [4, 13]	relative inactivation in logarithmic units (log10N0/Ni) [4, 14]	relative inactivation in logarithmic units (log10N0/Ni) [4, 15]	relative inactivation in logarithmic units (log10N0/Ni) [4, 16]	relative inactivation in logarithmic units (log10N0/Ni) [5]	relative inactivation in logarithmic units (log10N0/Ni) [5, 9]	relative inactivation in logarithmic units (log10N0/Ni) [7]	relative inactivation in logarithmic units (log10N0/Ni) [7, 9]	also measured
PKOBPgpLYS: SEQ ID NO: 61: OBPgpLYS (SEQ ID NO: 7) with N-terminal peptide stretch KRKKRKKRK (SEQ ID NO: 11)	>4.861 logarithmic units	1.806 +/− 0.287 logarithmic units	5.272 +/− 0.573 logarithmic units	1.163 +/− 0.063 logarithmic units	0.908 +/− 0.037 logarithmic units	0.127 +/− 0.013 logarithmic units	0.992 +/− 0.181 log units	5.204 +/− 0.000 log units	2.529 +/− 0.184 log units	5.671 +/− 0.000 log units	4.145 +/− 0.015 log units	> 5.69 log units and >5.687 log units	> 5.69 log units and >5.687 log units	>4.891 logarithmic units	0.904 +/− 0.079 logarithmic units	1.695 +/− 0.147 logarithmic units	1.434 +/− 0.018 logarithmic units	Δ, difference of activity between OBPgpLYS and PKOBPgpLYS samples ([4]; 0.013 μM endolysin, 0 mM EDTA-Na2): 0.036 log units; Δ, difference of activity between OBPgpLYS and PKOBPgpLYS samples ([4]; 0.013 μM endolysin, 0.5 mM EDTA-Na2): 0.578 log units; Δ, difference of activity between OBPgpLYS and PKOBPgpLYS samples ([4]; 0.131 μM endolysin, 0 mM EDTA-Na2): 0.371 log units; Δ, difference of activity between OBPgpLYS and PKOBPgpLYS samples ([4]; 0.131 μM endolysin, 0.5 mM EDTA-Na2): 1.072 log units; Δ, difference of activity between OBPgpLYS and PKOBPgpLYS samples ([4]; 1.315 μM endolysin, 0 mM EDTA-Na2): 0.5 log units and 0.548 log units; relative inactivation in logarithmic units (log10N0/Ni) ([4]; 1.315 μM endolysin, 0 mM EDTA-Na2, 30 minutes): 3.079 +/− 0.015 log units; Δ, difference of activity between OBPgpLYS and PKOBPgpLYS samples ([4]; 1.315 μM endolysin, 0.05 mM EDTA-Na2): 1.383 log units; Δ, difference of activity between OBPgpLYS and PKOBPgpLYS samples ([4]; 1.315 μM endolysin, 0.5 mM EDTA-Na2): >1.330 log units; Δ, difference of activity between OBPgpLYS and PKOBPgpLYS samples ([4]; 1.315 μM endolysin, 10 mM EDTA-Na2): >0.799 log units; effect compared to unmodified OBPgpLYS (in words) [6]: added effect; interaction with EDTA (in words) [6]: clear synergistic effect
OBPgpLYS: SEQ ID NO: 7: unmodified modular endolysin of 328 amino acid residues originating from Pseudomonas putida phage OBP	4.08 +/− 0.301 logarithmic units	0.997 +/− 0.131 logarithmic units	3.144 +/− 0.223 logarithmic units	1.082 +/− 0.083 logarithmic units	0.774 +/− 0.052 logarithmic units	0.076 +/− 0.011 logarithmic units	0.956 +/− 0.110 log units	4.626 +/− 0.287 log units	2.158 +/− 0.027 log units	4.599 +/− 0.275 log units	2.762 +/− 0.091 log units	4.357 +/− 1.857 log units	4.888 +/− 0.275 log units	4.891 +/− 0.000 logarithmic units	0.141 +/− 0.027 logarithmic units	1.179 +/− 0.200 logarithmic units	0.681 +/− 0.032 logarithmic units	–
